Assay results as given in PMC8282797, “Strictly regulated agonist-dependent activation of AMPA-R is the key characteristic of TAK-653 for robust synaptic responses and cognitive improvement” (Scientific Reports, 2021).

Tests used:
[1] = tested on: AMPA-R; assay: Ca2+ influx assay using rat primary hippocampal neurons; type: cell-based; design: key to Single effect on Ca2+ level: -: No effect or slight effect; +: Potent; ++: Very potent; settings: for Single effect on Ca2+ level: summary grade
Protocol: Ca^2+ influx assay using primary neurons was performed as previously described. After 5 days of culture, the cells plated on poly-D-lysine coated 96-well plates (Corning Incorporated) at 2 × 10^4 or 5 × 10^4 cells/well were used for experiments with PF-04958242 or TAK-653, respectively. Fluorescent calcium indicator dye solution (Calcium4 assay Kit, Dojindo, Kumamoto, Japan) in Ca^2+ reaction buffer (DMEM, HEPES and BSA) containing Probenecid (Dojindo) was added and incubated for 60 min in 5% CO2 at 37 °C. After washing once, the relative increases in intracellular Ca^2+ levels stimulated by compounds in the presence and absence of AMPA were monitored. Details are described in the Supplementary Information.
Primary cultures of hippocampal neuronal cells were prepared from fetal Sprague-Dawley rats at 19 days of gestation. Rat embryos were decapitated and their whole brains were isolated. Hippocampi were dissected in ice-cold Hanks' Balanced Salt Solutions (HBSS) under a microscope and then dispersed into cells using a neural cell dispersion kit (Sumitomo Bakelite Co., Ltd., Tokyo, Japan). The dissociated cells were suspended in Neurobasal medium containing B27 supplement (Thermo Fisher Scientific Inc.), 2 mM L-glutamine (Lonza, Basel, Switzerland), 100 U/mL penicillin (Lonza), 100 μg/mL streptomycin (Lonza) and 20 μg/mL gentamicin sulfate (Lonza). The cells were plated on poly-D-lysine coated 96-well plates (Corning Incorporated) for Ca^2+ influx assay or on poly-L-lysine coated 96-well plates (Sumitomo Bakelite) for measurement of BDNF protein levels and cultured in a humidified CO2 incubator with 5% CO2 at 37°C.
After 5 days of culture, the cells at 2×10^4 or 5×10^4 cells/well were used for experiments with PF-04958242 or TAK-653, respectively. For TAK-653, after removal of culture medium, 75 µL of fluorescent calcium indicator dye solution (Calcium4 assay Kit, Dojindo, Kumamoto, Japan) in Ca^2+ reaction buffer (DMEM, 10 mM HEPES and 0.1% BSA) containing 1.25 mM Probenecid (Dojindo) was added and incubated for 60 min in 5% CO2 at 37°C and washed once using 75 µL of fluorescent calcium indicator dye solution. After addition of 75 µL of fluorescent calcium indicator dye solution to each well again, the relative increases in intracellular Ca^2+ levels by compounds in the presence and absence of 5 μM AMPA were monitored for 8.5 min by fluorometric imaging plate reader. Activity of the compound was defined as fluorescence intensity integrated over the entire period of measurement. Intensity of 0% was defined as activity in the presence of only DMSO, while 100% was defined as activity in the presence of 5 μM AMPA and 10 μM HBT1. For PF-04958242, after removal of culture medium, 90 µL of fluorescent calcium indicator dye solution (Calcium4 assay Kit, Dojindo) in Ca^2+ reaction buffer (DMEM, 20 mM HEPES and 0.1% BSA) containing 2.5 mM Probenecid (Dojindo) was added and incubated for 60 min in 5% CO2 at 37°C. After addition of 90 µL of fluorescent calcium indicator dye solution to each well again, the relative increases in intracellular Ca^2+ levels by compounds in the presence and absence of 1 μM AMPA were monitored for 2 min in a microplate reader (CellLux, PerkinElmer, Waltham, MA, USA). Activity of the compound was defined as fluorescence intensity integrated over the entire period of measurement. 100% was defined as activity in the presence of 1 μM AMPA and 10 μM HBT1, while intensity of 0% was defined as activity in the presence of 1 μM AMPA or only DMSO for potentiator effect or agonistic effect, respectively. EC50 values were calculated by logistic regression analysis.

[2] = tested on: naïve rats; assay: Novel object recognition (NOR) test; type: in vivo, rat; settings: for NORT (effective doses): summary
Protocol: NOR tests were performed using male Long-Evans rats at 6 weeks old as previously described, with some modifications. On day 1, rats were allowed to habituate to the empty test box (a gray-colored polyvinyl chloride box (40 × 40 × 50 cm)) for 10 min individually. Testing comprised two 3-min trials called the acquisition trial and the retention trial that were separated by 48 h inter-trial intervals (ITIs). On day 2, in the acquisition trial, rats were allowed to explore two identical objects (A1 and A2) for 3 min. On day 4, in the retention trial, rats were again allowed to explore a familiar object (A3) and a novel object (B) for 3 min. The object exploration was defined as rats' licking, sniffing or touching the object with forelimbs while sniffing. TAK-653 or AMPA was orally or intraperitoneally, respectively, 2 h or 0.5 h prior to the acquisition and the retention trials. The NDI was calculated using the following equation: novel object interaction/total interaction × 100 (%).

[3] = tested on: poly-I:C mouse; assay: Social approach-avoidance test in poly-I:C mouse; type: in vivo; settings: 0.3 mg/kg, p.o., 1 h prior to test
Protocol: Poly-I:C (5 mg/kg) dissolved in sterile pyrogen-free 0.9% NaCl (control) solution was administered to pregnant female C57BL/6J mice on gestation day 15 (GD15) via the intravenous route at the tail vein with a volume of 5 ml/kg.
The apparatus was a three-chamber gray acryl box (53 × 19 × 21.5 cm, outer chamber: 19.3 × 19 × 21.5 cm), and dividing walls were made from clear acryl plates with gates. In the two outer chambers, transparent acryl cylinders with small holes (cylinder: 8.2 cm φ × 20.5 cm, hole: 1.3 cm φ) were placed to avoid direct physical interaction between a target animal and a test animal. Target animals were C57BL/6 J mice of the same age as test animals and no previous contact with them. On the test day, TAK-653 (0.3 mg/kg, p.o.) or vehicle was administered 1 h before the testing session. Each test animal was introduced in the middle chamber of test apparatus for 3 min with the gates being closed by partitions. Then the partitions were removed gently for the test animal to explore all three chambers freely for 5 min. Sniffing index was calculated as the index of sociability using the following equation:
Sniffing index = (Sniffing time to cylinder containing target mouse (s) − Sniffing time to empty cylinder (s))/ (Total sniffing time (s)).

Compound	Intracellular Ca2+ levels ([1]; single application)	Single effect on Ca2+ level [1]	Cognitive performance in the NOR test ([2]; 0.3 to 3 mg/kg, i.p.)	NORT (effective doses) [2]	Intracellular Ca2+ level, Agonistic effect @30 μM ([1]; absence of AMPA, % of 5 μM AMPA + 10 μM HBT1 response) [%]	EC50 ([1]; in the presence of 5 μM AMPA, read-out: Intracellular Ca2+ level, Potentiation EC50) [nM]	Novelty discrimination index (NDI) ([2]; 0.03, 0.1 and 0.3 mg/kg, p.o., 2 h prior to trials)	Dose improving visual learning and memory in NOR test ([2]; p.o., rats) [mg/kg]	Sniffing index [3]
Cc1onc(O)c1CC(N)C(=O)O (stereo not drawn) [AMPA, alpha-amino-3-hydroxy-5-methyl-4-isoxazole-propionic acid]	dose-dependently increased	+	did not improve	No effect					
CC1=CN2CCS(=O)(=O)N=C2C(c2ccc(OC3CCCCC3)cc2)=N1 [TAK-653, 9-[4-(Cyclohexyloxy)phenyl]-7-methyl-3,4-dihydropyrazino[2,1-c][1,2,4]thiadiazine 2,2-dioxide]		─		Effective (0.03, 0.1, 0.3)	4.8	930	significantly improved	≥ 0.03	significantly improved
